According to US6626844B1, “Method and composition for inhibition of nitric oxide production in the oral cavity” (Aerocrine AB, priority 1998, dated 2003):

Assays:
exhaled NO output = assay: Mouthwash trials: NO output in exhaled air; type: in vivo, humans; conditions: for effect on NO output: 30 s mouthwash with 25 ml
Description: Experimental protocol: Exhaled NO was measured at an exhalation flow rate of 100 ml/s and the NO output was calculated. Measurements were repeated 3 times at each time point and the median value was used. After baseline measurements, the test subjects (n=3) were asked to rinse their mouth with 25 ml of different solutions during 30 s whereafter the solution was spat out All solutions were made up in distilled water. Exhaled NO measurements were repeated directly after, and 5, 15 and 30 min after the mouthwash procedure. Results are given as mean relative changes in NO output compared to baseline measurements.

NO in exhaled air [1] = assay: Mouthwash after nitrate loading, NO in exhaled air; type: in vivo, humans
Description: The experiment was terminated with a mouthwash of sodium bicarbonate after 180 min with a following single-breath measurements. This to examine whether the mouthwash's possible reduction of the NO formation would be enhanced at a stage when one would expect high levels of NO. For mouthwash procedure see below.
In addition to the mouthwash with sodium bicarbonate after […], the effects of chlorhexidine was studied at a stage when one could expect larger amounts of nitrite in the saliva. This was also done in a separate experiment, on a separate day, not to interfere with the results of the original nitrate loading study. Five single-breaths with a breathhold were carried out to obtain a reliable baseline. Thereafter a load of 400 mg potassium nitrate was ingested, as described above. However, to facilitate this experiment for the subjects there was no demand for fasting. Five additional single-breaths were performed 90 min later—to get representative mean values of NO after nitrate ingestion. The subjects then rinsed their mouths with 2.5 cl chlorhexidine acetate 0.2% for 30 s and performed a NO measurement immediately afterwards. The single-breath procedure was also repeated 2, 5, 10, 20 and 30 min after the mouthwash.

NO in exhaled air [2] = assay: Mouthwashes and NO in exhaled air; type: in vivo, humans
Text: (§1) Ten healthy non-smoking subjects, age 23-43, were included in the study. The NO measurements were made with a chemiluminescense technique according to the recommendations recently described in the ERS Task Force Report (Kharitonov et al., 1997). The values of NO concentration were then registered in a computer software program together with the values of flow and pressure, measured with a pneunotachygraf, and calculations of these parameters were presented on a screen.
The following describes briefly the “single-breath” method for orally exhaled air. Compressed NO free air was continuously flowing into a non-diffusing gas collection bag, 100 l capacity (Hans Rudolph Inc.), at a rate of 2-3 l/min. The bag was connected via a tube to a Y-piece with a one-way valve, which in turn was adapted to a mouthpiece. Before the measurements the subjects inhaled NO free air through the mouthpiece and were asked to hold their breath for 10 s while they put their tongue into the mouthpiece's opening, in order to prevent NO from diffusing out. Then the subjects exhaled through the mouthpiece at a flow rate of about 0.15 l/s against a resistance of 50 cmH2O/l/s (Hans Rudolph Inc.), giving rise to an oral pressure of 8-10 cmH2O, for a period of 20 s. The exhaled air went out through the other one-way valve in the Y-piece leading on to a linear pneumotachymeter (Hans Rudolph Inc.), where the values of flow and pressure were registered and transformed into digital signals recorded by a computer software program (Medical Breath Analyser™ from Aerocrine AB, Sweden). The recordings were instantly visualized on a computer screen, which enabled the subjects to maintain a certain flow (i.e. 0.15 l/s), adjusting the exhalation to the flow curve. A fraction of the exhaled air was aspirated into the NO analyzer (Eco Physics Inc., Model CLD 700 AL) at a flow rate of approximately 0.5 l/min, through a 110-cm narrow-bore and Teflon®-coated tube connected to the mouthpiece. The detected NO levels were passed on to the computer and integrated with the figures for flow and pressure for calculation of NO release rate (pmol/s) and NO amount (pmol). NO release was calculated by the formula: NO-conc×Q=pmol/s×l/s=pmol/s. The conversion of NO-conc in ppb to a molecular unit goes via the fact that the volume of 1 mol of NO takes up 24.445 liters at normal temperature and pressure. Given this 1 ppb NO equals 40.908 pM. At the flow of 0.15 l/s and e.g. a NO-conc of 10 ppb the NO release equals 67 pmol/s. The use of NO-release, instead of NO-concentration as a registration unit, has the advantage of taking the flow rate into account, whereas in the use of NO-concentration the exhalation flow is not taken into consideration. In addition to the curves for flow and pressure two curves for NO concentration and NO release were plotted on the screen and calculated mean values were presented for the last 40% of the breath, representing the plateau phase. NO amount was also presented for the first 40%, representing the area under curve for the peak.
In order to further manipulate with the conditions in the oral cavity and perhaps influence the formation of NO from salivary nitrite different mouthwashes were introduced in the study. On a separate day, from that of the nitrate load, the ten subjects volunteered to have their NO in exhaled air measured after rinsing their mouth with distilled water, sodium bicarbonate-, ascorbic acid- and, nitrite solutions in named order. Further, a mouthwash with Chlorhexidine acetate 0.2% was included in the study.
In the first series of mouthwashes 5 baseline measurements with a breathhold were performed to obtain a reference value. In fact, all measurements in this part of the experiment were done with a breathhold, for the reasons described above. […]

[3] = system: NO synthesis in the oral cavity; conditions: prior treatment with mouthwash, healthy volunteers; cited from earlier work
NO in exhaled air [4] = assay: Nitrate loading: NO in orally exhaled air, single-breath chemiluminescence; type: in vivo, humans
Text: as §1
The following describes briefly the “single-breath” method for orally exhaled air. Compressed NO free air was continuously flowing into a non-diffusing gas collection bag, 100 l capacity (Hans Rudolph Inc.), at a rate of 2-3 l/min. The bag was connected via a tube to a Y-piece with a one-way valve, which in turn was adapted to a mouthpiece. Before the measurements the subjects inhaled NO free air through the mouthpiece and were asked to hold their breath for 10 s while they put their tongue into the mouthpiece's opening, in order to prevent NO from diffusing out. Then the subjects exhaled through the mouthpiece at a flow rate of about 0.15 l/s against a resistance of 50 cmH2O/l/s (Hans Rudolph Inc.), giving rise to an oral pressure of 8-10 cmH2O, for a period of 20 s. The exhaled air went out through the other one-way valve in the Y-piece leading on to a linear pneumotachymeter (Hans Rudolph Inc.), where the values of flow and pressure were registered and transformed into digital signals recorded by a computer software program (Medical Breath Analyser™ from Aerocrine AB, Sweden). The recordings were instantly visualized on a computer screen, which enabled the subjects to maintain a certain flow (i.e. 0.15 l/s), adjusting the exhalation to the flow curve. A fraction of the exhaled air was aspirated into the NO analyzer (Eco Physics Inc., Model CLD 700 AL) at a flow rate of approximately 0.5 l/min, through a 110-cm narrow-bore and Teflon®-coated tube connected to the mouthpiece. The detected NO levels were passed on to the computer and integrated with the figures for flow and pressure for calculation of NO release rate (pmol/s) and NO amount (pmol). NO release was calculated by the formula: NO-conc×Q=pmol/s×l/s=pmol/s. The conversion of NO-conc in ppb to a molecular unit goes via the fact that the volume of 1 mol of NO takes up 24.445 liters at normal temperature and pressure. Given this 1 ppb NO equals 40.908 pM. At the flow of 0.15 l/s and e.g. a NO-conc of 10 ppb the NO release equals 67 pmol/s. The use of NO-release, instead of NO-concentration as a registration unit, has the advantage of taking the flow rate into account, whereas in the use of NO-concentration the exhalation flow is not taken into consideration. In addition to the curves for flow and pressure two curves for NO concentration and NO release were plotted on the screen and calculated mean values were presented for the last 40% of the breath, representing the plateau phase. NO amount was also presented for the first 40%, representing the area under curve for the peak. […]
Changes in NO levels were analysed by using non-parametric ANOVA for paired and repeated measures with subsequent Dunn's post-test as offered by InStat from GraphPad Software. Nitrate and nitrite concentrations in the saliva were analysed by the non-parametric method of […] for paired measurements, using the same software. […]

nasal NO = assay: Nasal NO after nitrate loading; type: in vivo, humans; conditions: 5-180 min after nitrate loading
Text: To look into nasal NO levels a somewhat new approach taking advantage of the set-up for measurements in exhaled air was used. A “nose-olive”, tried out individually for a tight fitting to the subject's nostrils, was attached to the Teflon®-coated tube leading in to the NO-analyzer. The olive was then placed in one of the nostrils letting the NO analyzer aspirate air from the nasal cavity. Even though the subjects kept breathing through their mouth the NO concentrations oscillated with every breath, pointing to a leakage of NO from the nose to the oral cavity. The subjects were asked to take a deep breath and exhale through the mouthpiece against the same resistance as above, while the olive still was sampling from the nose. The oscillations of the NO values then ceased and the concentrations increased to a stable plateau, visualized on the computer screen. The time for exhalation was set to 20 s. which was well sufficient to reach a plateau. A mean value of the NO concentration during the last 40% of the exhalation, i.e. 8 s. was presented by the computer program and included in the protocol. […]
An amount of 400 mg potassium nitrate was dissolved in a cup of distilled water and then swallowed down. […] NO in exhaled air was measured first without and then with a breathhold, as mentioned above.

NO formation from saliva = system: NO formation from saliva
Description: On another occasion the subjects were asked to produce 10 ml of saliva, without time restriction, by again chewing on a piece of Teflon®-plastic. Half of this, i.e. 5 ml, was put in a 50 ml plastic syringe with an addition of 0.5 ml distilled water and closed with a three-way stopcock after filling it up with 50 ml of room air. The remaining 5 ml were mixed with 0.5 ml 20 mM nitrite solution (resulting in a salivary nitrite concentration of a […]) and put in another syringe filled with 50 ml of room air. The two syringes were put in a warming cupboard with an approximate temperature of 40° C. for 15 min. The air head space from both syringes was then collected in two separate empty 50 ml syringes and it's NO concentration was determined by the NO chemiluminescence analyser.

[5] = 0 min after 30 s mouthwash with 25 ml, n=3
[6] = immediately after 30 s mouthwash (3 cl), with breathhold, baseline 41.1±3.3, n=10
[7] = immediately after 30 s mouthwash, baseline 497.6±52.7
[8] = 120 min after nitrate ingestion, after breathhold

OO [1% H2O2, hydrogen peroxide]
effect on NO output (exhaled NO output): increased NO output

CC(=O)O.CC(=O)O.NC(=N\CCCCCC/N=C(N)/N=C(\N)Nc1ccc(Cl)cc1)/N=C(\N)Nc1ccc(Cl)cc1 [chlorhexidine acetate]
NO release (NO in exhaled air [1]; immediately after 0.2% mouthwash (2.5 cl, 30 s) given 90 min after nitrate load, before mouthwash 60.8±6.4): 33.9 ± 4.3 pmol/s | immediate reduction of NO levels (NO in exhaled air [1]; mouthwash 90 min after nitrate load): ~50% | mean relative change in NO output compared to baseline (exhaled NO output; [5]): −14% at | mean relative change in NO output compared to baseline (exhaled NO output; 5 min after mouthwash): −11% at | mean relative change in NO output compared to baseline (exhaled NO output; 15 min after mouthwash): −5% at | mean relative change in NO output compared to baseline (exhaled NO output; 30 min after mouthwash): −10% at | immediate decrease of NO compared to baseline (NO in exhaled air [2]; 0.2% mouthwash, control (fasting) situation): ~30% | NO release (NO in exhaled air [2]; immediately after 30 s mouthwash with 2.5 cl 0.2%, pH 8.0, separate day, baseline 33.9±2.9): 24.1 ± 3.5 pmol/s

O=C1O[C@H]([C@@H](O)CO)C(O)=C1O [ascorbic acid]
effect on NO production [3]: marked elevation in NO production | plateau NO release (NO in exhaled air [2]; [6]): 155.0 ± 27.6 pmol/s | peak level of NO (NO in exhaled air [2]; [7]): 2482.5±601.9 ppb | increase of peak concentration (NO in exhaled air [2]; immediately after mouthwash): around 400% | increase of plateau level compared to baseline (NO in exhaled air [2]; immediately after mouthwash): ~300%

polyoxyethylene sorbitan monolaurate [1% Tween-20 ®]
mean relative change in NO output compared to baseline (exhaled NO output; [5]): −9% at | mean relative change in NO output compared to baseline (exhaled NO output; 5 min after mouthwash): −6% at

O=S(=O)([O-])[O-].[Fe+2] [100 mg FeSO4]
effect on NO output (exhaled NO output): increased NO output

O=[N+]([O-])[O-].[K+] [potassium nitrate]
NO release (NO in exhaled air [1]; 90 min after 400 mg potassium nitrate, not fasting, control 34.8±4.2): 60.8 ± 6.4 pmol/s | increase of NO release compared to control levels (NO in exhaled air [1]; 90 min after nitrate load): ~2 fold | NO release during the plateau (NO in exhaled air [4]; 120 min after ingestion of 400 mg potassium nitrate, without breathhold, baseline 31.2±3.0, mean±SEM n=10): 77.0 ± 15.2 pmol/s | increase of peak NO amount compared to baseline (NO in exhaled air [4]; [8]): 130% | peak level: total amount NO released during the first 40% of the exhalation (NO in exhaled air [4]; [8]): 819 ± 160.8 pmol | NO release during the plateau (NO in exhaled air [4]; 120 min after nitrate ingestion, with breathhold, baseline 31.9±4.5): 70.8 ± 11.6 pmol/s | increase of plateau NO release compared to baseline (NO in exhaled air [4]; 120 min after nitrate ingestion, without breathhold): ~150% | changes in nasal NO production (nasal NO): no significant changes in NO production

O=C([O-])O.[Na+] [sodium bicarbonate]
reduction of plateau (NO in exhaled air [1]; mouthwash 180 min after nitrate load): more than 30% | plateau NO release (NO in exhaled air [1]; mouthwash 180 min after nitrate load, before mouthwash 52.7±4.8): 36.2 ± 4.2 pmol/s | mean relative change in NO output compared to baseline (exhaled NO output; [5]): −7% at | mean relative change in NO output compared to baseline (exhaled NO output; 5 min after mouthwash): −5% at | mean relative change in NO output compared to baseline (exhaled NO output; 15 min after mouthwash): −8% at | mean relative change in NO output compared to baseline (exhaled NO output; 30 min after mouthwash): −8% at | plateau NO release (NO in exhaled air [2]; 120 s after 30 s mouthwash): 34.4 ± 3.6 pmol/s | plateau NO release (NO in exhaled air [2]; [6]): 31.3 ± 3.1 pmol/s | peak level of NO (NO in exhaled air [2]; [7]): 309.2±43.0 ppb

O=N[O-].[K+] [nitrite solution, potassium nitrite]
NO concentration in head space of incubated saliva (NO formation from saliva; 5 ml saliva + 0.5 ml 20 mM nitrite, about 40° C., 15 min, pure saliva 59.5±29.8): 396.4±138.2 ppb | increase of NO formation versus pure saliva (NO formation from saliva; nitrite added to saliva): more than 500% | increase of plateau NO release compared to baseline (NO in exhaled air [2]; 0.1 M nitrite solution): > 40 fold | peak level of NO (NO in exhaled air [2]; 60 s after 30 s mouthwash): 2812.1±622.1 ppb | plateau NO release (NO in exhaled air [2]; 60 s after 30 s mouthwash): 225.2 ± 44.0 pmol/s | plateau NO release (NO in exhaled air [2]; dose-response rinse, 1 mM nitrite solution, one single-breath after rinsing): 55.0 ± 8.7 pmol/s | plateau NO release (NO in exhaled air [2]; dose-response rinse, 0.1 M nitrite solution): 1791.8 ± 404.8 pmol/s
